Reference: US6914045B2, “Glycopeptide antibiotics” (Wyeth Holdings Corporation, priority 2001, dated 2005)

Experiments:
Assay in all cases: in vitro antibacterial evaluation, MIC by broth dilution
Type in all cases: cell-based
[1] = system: Escherichia coli; conditions: 18 hours at 35° C.
[2] = system: Staphylococcus sp.; conditions: broth dilution, 18 hours at 35° C.; for MIC Staphylococcus aureus (GC 1131): strain GC 1131
In short: (§1)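 Broth dilution per NCCLS standard M7-A2 in Muller-Hinton II […], with an inoculum of 5×10^5 CFU/mL and antibiotic spanning 64-0.06 μg/mL. The MIC is the lowest concentration that inhibits growth of the organism.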

[3] = system: Streptococcus sp.; conditions: broth dilution, 18 hours at 35° C.
In short: as §1

[4] = system: Enterococcus sp.; conditions: broth dilution, 18 hours at 35° C.
In short: as §1

CC(c1ccc(Cl)cc1)C1NC(=O)CNC(=O)C(CO)NC(=O)C(C(O)C2CNC(=N)N2C2OC(CO)C(O)C(O)C2O)NC(=O)C(C(O)C2CNC(=N)N2)NC(=O)C(Cc2ccc(OC3OC(CO)C(OC4OC5COC(C6CCCCC6)OC5C(O)C4O)C(O)C3O)cc2)NC1=O (stereo not shown) [Example 193]
<0.06 µg/mL: MIC Streptococcus agalactiae (GC 4564) [3] | MIC Streptococcus pneumoniae (GC 1894) [3] | MIC Streptococcus pneumoniae (GC 4565) [3] | MIC Streptococcus pyogenes (GC 4563) [3] | MIC Streptococcus pneumoniae (GC 1894) ([3]; inoculum 5×10^5 CFU/mL, strain GC 1894) | MIC Streptococcus pyogenes (GC 4563) ([3]; inoculum 5×10^5 CFU/mL, strain GC 4563) | MIC Streptococcus agalactiae (GC 4564) ([3]; inoculum 5×10^5 CFU/mL, strain GC 4564) | MIC Streptococcus pneumoniae (GC 4565) ([3]; inoculum 5×10^5 CFU/mL, strain GC 4565)
0.25 µg/mL: MIC Staphylococcus aureus (GC 4542) ([2]; strain GC 4542) | MIC Coagulase Negative Staphylococcus (GC 4548) ([2]; strain GC 4548) | MIC Coagulase Negative Staphylococcus (GC 4549) ([2]; strain GC 4549) | MIC Coagulase Negative Staphylococcus (GC 6257) ([2]; strain GC 6257)
0.5 µg/mL: MIC Staphylococcus aureus (ATCC 29213) ([2]; strain ATCC 29213) | MIC Staphylococcus aureus (GC 3053) ([2]; strain GC 3053) | MIC Staphylococcus aureus (GC 4541) ([2]; strain GC 4541) | MIC Staphylococcus aureus-SMITH (GC 4543) ([2]; strain GC 4543) | MIC Staphylococcus aureus (GC 4545) ([2]; strain GC 4545) | MIC Staphylococcus haemolyticus (GC 4546) ([2]; strain GC 4546) | MIC Coagulase Negative Staphylococcus (GC 4551) ([2]; strain GC 4551) | MIC Enterococcus faecalis (GC 6189) [4] | MIC Enterococcus faecalis (GC 6189) ([4]; inoculum 5×10^5 CFU/mL, strain GC 6189)
0.12 µg/mL: MIC Streptococcus pneumoniae (ATCC 6301) [3] | MIC Streptococcus pneumoniae (ATCC 6301) ([3]; inoculum 5×10^5 CFU/mL, strain ATCC 6301)
32 µg/mL: MIC Escherichia coli (GC 4559) [1]
1 µg/mL: MIC Staphylococcus aureus (GC 1131) ([2]; inoculum 5×10^5 CFU/mL) | MIC Staphylococcus aureus (GC 1131) [2] | MIC Staphylococcus aureus (GC 3051) ([2]; strain GC 3051) | MIC Staphylococcus aureus (GC 4544) ([2]; strain GC 4544) | MIC Coagulase Negative Staphylococcus (GC 4547) ([2]; strain GC 4547) | MIC Enterococcus faecalis (ATCC 29212) [4] | MIC Enterococcus faecalis (GC 2242) [4] | MIC Enterococcus faecalis (GC 3059) [4] | MIC Enterococcus faecalis (GC 4552) [4] | MIC Enterococcus faecium (GC 2243) [4] | MIC Enterococcus faecium (GC 4556) [4] | MIC Enterococcus faecalis (ATCC 29212) ([4]; inoculum 5×10^5 CFU/mL, strain ATCC 29212) | MIC Enterococcus faecalis (GC 2242) ([4]; inoculum 5×10^5 CFU/mL, strain GC 2242) | MIC Enterococcus faecium (GC 2243) ([4]; inoculum 5×10^5 CFU/mL, strain GC 2243) | MIC Enterococcus faecalis (GC 3059) ([4]; inoculum 5×10^5 CFU/mL, strain GC 3059) | MIC Enterococcus faecalis (GC 4552) ([4]; inoculum 5×10^5 CFU/mL, strain GC 4552) | MIC Enterococcus faecium (GC 4556) ([4]; inoculum 5×10^5 CFU/mL, strain GC 4556)
2 µg/mL: MIC Escherichia coli (GC 4560) [1] | MIC Enterococcus avium (GC 4558) [4] | MIC Enterococcus faecalis (GC 2691) [4] | MIC Enterococcus faecalis (GC 4553) [4] | MIC Enterococcus faecalis (GC 4554) [4] | MIC Enterococcus faecium (GC 4557) [4] | MIC Enterococcus faecalis (GC 2691) ([4]; inoculum 5×10^5 CFU/mL, strain GC 2691) | MIC Enterococcus faecalis (GC 4553) ([4]; inoculum 5×10^5 CFU/mL, strain GC 4553) | MIC Enterococcus faecalis (GC 4554) ([4]; inoculum 5×10^5 CFU/mL, strain GC 4554) | MIC Enterococcus faecium (GC 4557) ([4]; inoculum 5×10^5 CFU/mL, strain GC 4557) | MIC Enterococcus avium (GC 4558) ([4]; inoculum 5×10^5 CFU/mL, strain GC 4558)
